Test results: patent publication US10098840B2, “Nanoparticulate composition containing antibiotics for intramammary administration in animals” (priority 2010, dated 2018)

Experiments:
[1] = In vitro release profile of cloxacillin benzathine by direct dialysis in PBS:PEG and PBS:milk; type: physicochemical; conditions: 37° C.; PBS:PEG vs PBS:milk
Procedure: The evaluation of the release profile in vitro of the cloxacillin benzathine from the nanocarriers of reservoir type was performed according to the direct dialysis technique in two different release environments. Dialysis bags were inserted in containers containing a buffered saline solution and 1% polyethylene glycol 300 (PBS:PEG) or a buffered saline containing 1% of skimmed milk (PBS:milk) under 37° C. with moderate stirring. […] In pre-defined lapses, aliquots were removed and the environment was re-added with the same volume withdrawn. Right after, the samples were prepared and the supernatant dosed.

[2] = Degradation of the drug by HPLC during the dissolution test at pH 7.4; type: physicochemical; conditions: until 540 minutes of test
Procedure: In this work, the dissolution was conducted in pH 7.4 for it is about the pH of the milk of animals with mastitis (Gruet et al., 2001).

With Cc1onc(-c2ccccc2Cl)c1C(=O)N[C@@H]1C(=O)N2[C@@H]1SC(C)(C)[C@@H]2C(=O)O [CLOXB, cloxacillin benzathine] the “release depending on the environment (1% PEG vs 1% milk), in words” value [1] was “release was bigger in environment containing 1% of PEG” and the “degradation of the drug” value [2] was “no degradation”.
